# Measurements published in patent US6040149A, “Assay for identifying agents which act on the ceramide-activated protein kinase, kinase suppressor of ras, and methods of using said agents” (priority 1997, dated 2000).
# Read-outs that look alike come from different tables or passages of the source.
# Experiments:
# KSR = target: T1, KSR (Mus musculus, UniProt Q61097); test: KSR activity toward Raf-1 peptides in vitro; type: biochemical, mouse (KSR immunoprecipitated from COS-7 cells); set-up: Raf-1 peptides as substrate; settings: for KSR activity towards substrate peptide: 30 nM ceramide, 5 min
# T1 sequence (Q61097 1-873): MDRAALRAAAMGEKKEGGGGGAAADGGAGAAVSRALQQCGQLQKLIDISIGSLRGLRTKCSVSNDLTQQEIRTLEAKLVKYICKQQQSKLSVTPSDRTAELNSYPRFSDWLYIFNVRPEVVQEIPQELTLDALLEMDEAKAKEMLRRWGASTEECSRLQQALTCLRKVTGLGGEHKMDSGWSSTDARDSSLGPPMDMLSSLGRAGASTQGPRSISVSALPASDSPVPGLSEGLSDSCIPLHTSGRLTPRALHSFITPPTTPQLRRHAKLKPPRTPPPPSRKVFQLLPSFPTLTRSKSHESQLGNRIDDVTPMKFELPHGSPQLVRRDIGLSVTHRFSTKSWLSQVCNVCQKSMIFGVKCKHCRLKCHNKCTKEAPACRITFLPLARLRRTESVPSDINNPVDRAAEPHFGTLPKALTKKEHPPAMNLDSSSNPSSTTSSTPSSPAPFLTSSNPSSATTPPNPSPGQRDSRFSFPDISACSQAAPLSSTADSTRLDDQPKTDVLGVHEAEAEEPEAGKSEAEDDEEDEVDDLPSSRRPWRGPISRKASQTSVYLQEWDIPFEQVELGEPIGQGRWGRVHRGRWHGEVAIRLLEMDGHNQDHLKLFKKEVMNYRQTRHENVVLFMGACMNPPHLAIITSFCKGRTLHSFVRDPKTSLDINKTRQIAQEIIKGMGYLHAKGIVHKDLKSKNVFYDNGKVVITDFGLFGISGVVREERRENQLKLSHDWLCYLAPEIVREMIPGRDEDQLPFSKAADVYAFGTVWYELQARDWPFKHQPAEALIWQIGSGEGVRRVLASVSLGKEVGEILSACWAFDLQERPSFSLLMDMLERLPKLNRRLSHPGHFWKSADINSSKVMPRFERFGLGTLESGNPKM
# Experimental: The wild type peptide contains eight potential phosphorylation sites (shown in bold). Substitution of alanines and glycines for serines and threonines generated one peptide (TTLP-peptide) containing only two potential phosphorylation sites (Thr^268,269) and another peptide (AALP-peptide) with no potential phosphorylation sites.
# FIG. 28A--Flag-tagged KSR was immunoprecipitated from 0.2 mg COS-7 lysate, and assayed with TTLP- or AALP-peptides in the presence of 30 nM ceramide (Avanti) or diluent (DMSO). Background counts per minute (cpm) derived from samples incubated with the AALP-peptide which contains no phosphorylation sites were subtracted from all points. Background cpm always represented less than 25% of the untreated total.
# FIG. 28B--Flag-tagged KSR immunoprecipitated from 0.2 mg COS-7 lysate was assayed with TTLP- or AALP-peptides in the presence of ceramide or diluent for 45 min as described in FIG. 7A.
# FIG. 28C--Flag-tagged KSR was immunoprecipitated from 0.15 mg COS-7 lysate and assayed with TTLP- or AALP-peptides for 20 min in the presence of 30 nM of the indicated lipid second messengers as described in FIG. 28A (AA: arachidonic acid; LPA: lyso phosphatidic acid; PMA: phorbol 12-myristate 13-acetate; DAG: 1,2-diacylglycerol).
# KSR-bound beads were incubated with reaction buffer B plus 10 mM MnCl2, 5 μM ATP and [γ-^32 P]ATP at 22° C. for the period of time indicated in the presence of 0.3 mM synthetic Raf-peptide or substrate peptides specific for other Ser/Thr protein kinases. […] (SEQ ID NO.3). Substitution of glycines and alanines for serines and threonines generated one peptide (termed TTLP-peptide) containing only two potential phosphorylation sites at Thr^268,269 (in bold), […] (SEQ ID NO. 24), and another peptide (termed AALP-peptide; SEQ ID No.6) with no potential phosphorylation sites, […] (SEQ ID No.25). The amino acid sequences of substrate peptides specific for other protein kinases (Joseph et al., 1993) are: […] (SEQ ID NO.26) (PKA); […] (SEQ ID NO.27) (S6 kinase); […] (SEQ ID NO.28)(CK II); […] (SEQ ID NO.29) (CaM kinase II); and […] (SEQ ID NO.30) (PKC). […] Substrate peptides for PKA and PKC were from Sigma (St. Louis, Mo.). The reaction was stopped by addition of a stop solution containing 0.5 M ATP in 90% formic acid. The beads were removed by centrifugation at 5000×g for 2 min and the supernatant was loaded on P81 Whatman filter paper. The filter was air dried and washed in 4 mM Na2 H2 P2 O7, 1 mM acetic acid for one hour. The filter was baked at 90° C. for 10 min and quantified by Cerenkov counting using a Beckman LS 5000TD scintillation counter. In some experiments, samples were separated by C18 reverse-phase chromatography on HPLC (Mathias et al., 1991) to verify the results of the filter assay. Virtually identical results were obtained with both methods.
# [1] = system: ceramide-activated protein kinase; test: EGFR peptide phosphorylation by kinase in A-431 microsomal membranes / postnuclear supernatant; type: biochemical, human (A-431 epidermoid carcinoma cells); settings: words
# Experimental: Kinetics of ^32 Pi incorporation into the EGFR peptide. […] The reaction was initiated by addition of 50 μl of [γ-^32 P]ATP (150 μM final concentration) and terminated by addition of 50 μl of 0.5 M ATP in 90% (vol/vol) formic acid. Samples were spotted on phosphocellulose paper, washed with 1 M acetic acid/4 mM pyrophosphate, and ^32 P incorporation was measured by liquid-scintillation counting, as described. A boiled protein blank was subtracted from each data value. The data (means) represent duplicate samples from one of two similar experiments. […]
# Kinetics of ceramide-induced ^32 Pi incorporation into EGFR peptide. Peptide phosphorylation was done as described in FIG. 2 in the absence (.smallcircle.) or presence (.circle-solid.) of 0.5 μM C8 -ceramide. Phosphorylated peptide was resolved by HPLC. Values (means) represent data from three experiments.
# Concentration-dependence of ceramide-induced ^32 Pi incorporation into EGFR peptide. Peptide phosphorylation reactions were done as described for FIG. 2, for 2 minutes, using various concentrations of ceramide (0.001-3 μM). Phosphorylated peptide was resolved by HPLC. Values (means) represent data from three experiments. […]
# Phosphorylation was initiated at 22° C. by addition of 50 μl of [γ-^32 P] ATP (150 μM final concentration; 4000 dpm/pmol). For studies with lipid activators, ceramide and other lipids were dried under N2 and resuspended in the kinase assay buffer by bath sonication for 2 minutes at 37° C.
# Phosphorylated peptide was quantified by two separate methods. For initial studies, samples were spotted on phosphocellulose paper, washed in 1 M acetic acid/4 mM pyrophosphate and subjected to liquid scintillation counting, according to methods well known to those skilled in the art. Values obtained from a boiled blank or a sample lacking peptide were subtracted from each determination. Alternatively, HPLC was done according to methods well known to those skilled in the art. For these studies, samples were first applied to a C18 Sep-Pak cartridge and eluted with 99.9% acetonitrile/0.1% trifluoroacetic acid. The eluates were lyophilized, resuspended in 6 M guanidine hydrochloride/200 mM Tris, pH 8.5 and applied to a C18 reverse-phase column (Dynamax, 4.6 mm i.d., Rainin, Woburn, Mass.). The peptide was eluted with a linear gradient (1% per minute) of acetonitrile at a flow rate of 1 ml/minute and was detected by measuring the Cerenkov radiation associated with 1-ml fractions.
# [2] = system: ceramide-activated protein kinase
# EL-4 cells = test: Sphingomyelin and ceramide levels in intact EL-4 cells; type: cell-based, murine; settings: maximally effective concentrations (n=5)
# Experimental: IL-1β effects on sphingomyelin levels in EL4 cells. Time course (A) and dose response (B). Cells were grown to growth arrest (1-1.5×10^6 cells ml^-1) in DME/Ham's F12 medium (1:1, v/v) containing 10% horse serum and for 48 hours [^3 H]choline (1 μCi ml^-1). On the day of an experiment, cells were resuspended back into the same medium at 10×10^6 cells ml^-1 and stimulated with 40 ng ml^-1 IL-1β for the indicated times (A) or for 30 minutes with increasing concentrations of IL-1β (B). Human IL-1β may be obtained using methods well known to those skilled in the art. Reactions were terminated with CHCl3 :CH3 OH:HCl (100:100:1) containing 10 mM EDTA (82). Lipids in the organic phase extract were dried under N2 and subjected to mild alkaline hydrolysis (0.1 M methanolic KOH for 1 hour at 37° C.) to remove glycerophospholipids. Sphingomyelin was resolved by thin-layer chromatography (TLC) using CHCl3 :CH3 OH:CH3 COOH:H2 O (60:30:8:5) as solvent, identified by iodine vapor staining, and quantified by liquid scintillation spectrometry. As previously reported, the use of [^3 H]choline as a measure of sphingomyelin content was validated by simultaneous phospholipid phosphorus measurements. Each value represents the mean±SEM of triplicate determinations from four experiments in (A), and one representative of four similar studies performed in triplicate in (B).
# Effect of IL-1β on ceramide levels in EL-4 cells. Cells were stimulated as in FIG. 12 with IL-1β (40 ng ml^-1) and ceramide contained within the organic phase extract quantified enzymatically using the E. coli diacylglycerol kinase reaction. Lipids were resolved by TLC using CHCl3 :CH3 OH:CH3 COOH (65/15/5) as solvent, autoradiographed and quantified by liquid scintillation spectrometry. Each value represents the mean±SEM of triplicate determinations from 10 experiments.
# The murine thymoma EL-4 cell line is a well-defined IL-1 responsive cell line that expresses functional IL-1 receptors. Upon stimulation with IL-1, these cells up-regulate the IL-2 receptor and secrete IL-2 [62]. Initial studies were designed to investigate the effects of IL-1β on cellular sphingomyelin content. Cells, grown in Dulbecco's Modified Eagle's (DME)/Ham's F-12 medium containing 10% horse serum and [^3 H]choline (1 μCi ml^-1), were resuspended back into the same medium at 10×10^6 cells ml^-1 and stimulated with IL-1β. IL-1β is commercially available.
compound,measurement,setting,value
LSSLRASTSKSGGQK [S6 kinase substrate peptide],KSR activity towards substrate peptide,KSR,minimal activity
"CCCCCCCCCCCCC/C=C/[C@@H](O)[C@H](CO)NC(=O)CCCCCCC [C8-ceramide, N-octanoylsphingosine]",effect on EGFR peptide phosphorylation,[1],similarly effective
same,"maximal kinase activity, fold of control",[2]; 10 μM C8-cer added to medium,1.5 fold of control
GRGLSLSR [PKA substrate peptide],KSR activity towards substrate peptide,KSR,minimal activity
CCCCCCCCCCCCCCCC(=O)O [palmitic acid],effect on EGFR peptide phosphorylation,[1],failed to increase EGFR peptide phosphorylation
PLARTLSVAGLPGK [CaM kinase II substrate peptide],KSR activity towards substrate peptide,KSR,minimal activity
CNC[C@H](O)c1ccc(O)c(O)c1 [epinephrine],ceramide response,EL-4 cells,failed to elicit a ceramide response
dihydroceramide,activation of KSR,KSR,fail to activate KSR
concanavalin A,ceramide response,EL-4 cells,failed to elicit a ceramide response
RRREEETEEE [CK II substrate peptide],KSR activity towards substrate peptide,KSR,minimal activity
RQRGAGAPNVHMVGTTLPVDGRMIE [TTLP-peptide],phosphorylation of peptide by KSR,KSR,same extent
CC1=C(/C=C/C(C)=C/C=C/C(C)=C/C(=O)O)C(C)(C)CCC1 [retinoic acid],effect on kinase activity in membranes of stimulated HL-60 cells,"[2]; cholera toxin 10 nM, retinoic acid 0.5 μM, butyrate 0.5 mM",not stimulated
cholera toxin,effect on kinase activity in membranes of stimulated HL-60 cells,[2],not stimulated
RQRGAGAPNVHMVGAALPVDGRMIE [AALP-peptide],phosphorylation of peptide by KSR,KSR,negligible
VRKRTLRRL [PKC substrate peptide],KSR activity towards substrate peptide,KSR,minimal activity
